Values quoted from earlier work, collected in PubChem BioAssay AID1259409 (Chemical Carcinogenesis Research Information System (CCRIS), 2018).

Test system: rodent chemically induced tumor inhibition, incidence and multiplicity
Test: CCRIS tumor inhibitor studies

CC1=C(/C=C/C(C)=C/C=C/C(C)=C/C=C/C=C(C)/C=C/C=C(C)/C=C/C2=C(C)CCCC2(C)C)C(C)(C)CCC1
tumour outcome (control, treated, inhibition, significance) (Carcinogen: DIESEL EXHAUST PARTICLES, Dose [Inhibitor]: 0, 0.02% IN HIGH FAT DIET FOR DURATION OF STUDY (STUDY DURATION: 12 MO), Route [Inhibitor]: ORAL, Species: MOUSE, Strain/Sex: ICR/MALE, Target Tissue: Type of Lesion: LUNG: TUMOR, Dose [Carcinogen]: 0.1 MG 1/WK FOR 10 WK, Promoter: NONE USED): 13/30 (43%), 5/30 (17%), 60%, not calculated | tumour outcome (control, treated, inhibition, significance) (Carcinogen: DIESEL EXHAUST PARTICLES, Dose [Inhibitor]: 0, 0.02% IN HIGH FAT DIET FOR DURATION OF STUDY (STUDY DURATION: 12 MO), Route [Inhibitor]: ORAL, Species: MOUSE, Strain/Sex: ICR/MALE, Target Tissue: Type of Lesion: LUNG: TUMOR, Dose [Carcinogen]: 0.2 MG 1/WK FOR 10 WK, Promoter: NONE USED): 7/29 (24%), 11/29 (38%), -58%, not calculated | tumour outcome (control, treated, inhibition, significance) (Carcinogen: DIESEL EXHAUST PARTICLES, Dose [Inhibitor]: 0, 0.02% IN HIGH FAT DIET FOR DURATION OF STUDY (STUDY DURATION: 12 MO), Route [Inhibitor]: ORAL, Species: MOUSE, Strain/Sex: ICR/MALE, Target Tissue: Type of Lesion: LYMPHATIC SYSTEM: LYMPHOMA, Dose [Carcinogen]: 0.1 MG 1/WK FOR 10 WK, Promoter: NONE USED): 3/30 (10%), 9/30 (30%), -200%, not calculated | tumour outcome (control, treated, inhibition, significance) (Carcinogen: DIESEL EXHAUST PARTICLES, Dose [Inhibitor]: 0, 0.02% IN HIGH FAT DIET FOR DURATION OF STUDY (STUDY DURATION: 12 MO), Route [Inhibitor]: ORAL, Species: MOUSE, Strain/Sex: ICR/MALE, Target Tissue: Type of Lesion: LYMPHATIC SYSTEM: LYMPHOMA, Dose [Carcinogen]: 0.2 MG 1/WK FOR 10 WK, Promoter: NONE USED): 8/29 (28%), 4/29 (14%), 50%, not calculated | tumour outcome (control, treated, inhibition, significance) (Carcinogen: DIETHYLNITROSAMINE, 55-18-5, Dose [Inhibitor]: 0, 0.005% IN DIET FOR DURATION OF STUDY (STUDY DURATION: 13 WKS), Route [Inhibitor]: ORAL, Species: HAMSTER, Strain/Sex: SYRIAN/MALE, Target Tissue: Type of Lesion: LARYNX/TRACHEA: PAPILLOMA, Dose [Carcinogen]: 100 MG/KG BW ONCE, Promoter: CIGARETTE SMOKE): 13/28 (46%), 10/28 (36%), 22%, not significant | tumour outcome (control, treated, inhibition, significance) (Carcinogen: DIETHYLNITROSAMINE, 55-18-5, Dose [Inhibitor]: 0, 0.05% IN DIET FOR DURATION OF STUDY (STUDY DURATION: 13 WKS), Route [Inhibitor]: ORAL, Species: HAMSTER, Strain/Sex: SYRIAN/MALE, Target Tissue: Type of Lesion: LARYNX/TRACHEA: PAPILLOMA, Dose [Carcinogen]: 100 MG/KG BW ONCE, Promoter: CIGARETTE SMOKE): 13/28 (46%), 11/29 (38%), 17%, not significant | tumour outcome (control, treated, inhibition, significance) (Carcinogen: DIETHYLNITROSAMINE, 55-18-5, Dose [Inhibitor]: 0, 0.5% IN DIET FOR 10 D THEN REDUCED TO 0.25% FOR DURATION OF STUDY (STUDY DURATION: 13 WKS), Route [Inhibitor]: ORAL, Species: HAMSTER, Strain/Sex: SYRIAN/MALE, Target Tissue: Type of Lesion: LARYNX/TRACHEA: PAPILLOMA, Dose [Carcinogen]: 100 MG/KG BW ONCE, Promoter: CIGARETTE SMOKE): 13/28 (46%), 4/26 (15%), 67%, p< 0.05 | tumour outcome (control, treated, inhibition, significance) (Carcinogen: DIETHYLNITROSAMINE, 55-18-5, Dose [Inhibitor]: 0, 1.5 MG 2/WK FOR 20 WK (STUDY DURATION: 25 WK), Route [Inhibitor]: SUBCUTANEOUS, Species: HAMSTER, Strain/Sex: SYRIAN/MALE, Target Tissue: Type of Lesion: LUNG: CARCINOMA, Dose [Carcinogen]: 17.8 MG/KG BW 2/WK FOR 20 WK, Promoter: NONE USED): 50%, 26%, 48%, not significant | tumour outcome (control, treated, inhibition, significance) (Carcinogen: DIETHYLNITROSAMINE, 55-18-5, Dose [Inhibitor]: 0, 1.5 MG 2/WK FOR 20 WK (STUDY DURATION: 25 WK), Route [Inhibitor]: SUBCUTANEOUS, Species: HAMSTER, Strain/Sex: SYRIAN/MALE, Target Tissue: Type of Lesion: TRACHEA: PAPILLOMA, Dose [Carcinogen]: 17.8 MG/KG BW 2/WK FOR 20 WK, Promoter: NONE USED): 95%, 100%, -5%, not significant | tumour outcome (control, treated, inhibition, significance) (Carcinogen: DIETHYLNITROSAMINE, 55-18-5, Dose [Inhibitor]: 0, 3 MG 2/WK FOR 20 WK (STUDY DURATION: 25 WK), Route [Inhibitor]: SUBCUTANEOUS, Species: HAMSTER, Strain/Sex: SYRIAN/MALE, Target Tissue: Type of Lesion: LUNG: CARCINOMA, Dose [Carcinogen]: 17.8 MG/KG BW 2/WK FOR 20 WK, Promoter: NONE USED): 60%, 30%, 50%, not significant | tumour outcome (control, treated, inhibition, significance) (Carcinogen: DIETHYLNITROSAMINE, 55-18-5, Dose [Inhibitor]: 0, 3 MG 2/WK FOR 20 WK (STUDY DURATION: 25 WK), Route [Inhibitor]: SUBCUTANEOUS, Species: HAMSTER, Strain/Sex: SYRIAN/MALE, Target Tissue: Type of Lesion: TRACHEA: PAPILLOMA, Dose [Carcinogen]: 17.8 MG/KG BW 2/WK FOR 20 WK, Promoter: NONE USED): 100%, 100%, 0%, not significant | tumour outcome (control, treated, inhibition, significance) (Carcinogen: DIMETHYLBENZ[A]ANTHRACENE, 57-97-6, Dose [Inhibitor]: 0.25 ML OF 0.015% AGENT IN ACETONE ADMINISTERED WITH PROMOTER 5/WK FOR 16 WK BEGINNING 3 WK POST CARCINOGEN DOSE (STUDY, Route [Inhibitor]: DERMAL, Species: MOUSE, Strain/Sex: ICR/FEMALE, Target Tissue: Type of Lesion: SKIN: PAPILLOMA, Dose [Carcinogen]: 0.125 MG IN 0.25 ML ACETONE ONCE, Promoter: PHENOL, 108-95-2): 7/25 (28%), 6/28 (21%), 25%, not calculated | tumour outcome (control, treated, inhibition, significance) (Carcinogen: DIMETHYLBENZ[A]ANTHRACENE, 57-97-6, Dose [Inhibitor]: 100 MG/KG OF DIET IMMEDIATELY FOLLOWING CARCINOGEN DOSE FOR 22 WK (STUDY DURATION: 22 WK), Route [Inhibitor]: ORAL, Species: RAT, Strain/Sex: SPRAGUE-DAWLEY/MALE, Target Tissue: Type of Lesion: SALIVARY GLAND: TUMOR, Dose [Carcinogen]: 1 MG IN OLIVE OIL INJECTED INTO ONE SALIVARY GLAND ONCE, Promoter: NONE USED): 3/9 (33%), 1/11 (9%), 73%, not significant | tumour outcome (control, treated, inhibition, significance) (Carcinogen: METHYL(ACETOXYMETHYL)NITROSAMINE, 56856-83-8, Dose [Inhibitor]: 0, 5.8 NMOL IN DRINKING WATER BEGINNING 2 WK PRIOR TO CARCINOGEN AND CONTINUED FOR STUDY DURATION, (STUDY DURATION: 13 M, Dose [Inhibitor]: 0, 5.8 NMOL IN DRINKING WATER BEGINNING 2 WK PRIOR TO CARCINOGEN AND CONTINUED FOR STUDY DURATION, (STUDY DURATION: 13 M, Route [Inhibitor]: ORAL, Species: HAMSTER, Strain/Sex: SYRIAN/FEMALE, Target Tissue: Type of Lesion: ORAL CAVITY: TUMOR, Dose [Carcinogen]: 2 MG/KG BW IN DISTILLED WATER TO RIGHT CHEEK POUCH 2/MO FOR 6 MO (TOTAL DOSE 24 MG/KG), Promoter: NONE USED): 14/15 (93%), 4/15 (27%), 71%, p<0.001 | tumour outcome (control, treated, inhibition, significance) (Carcinogen: N-BUTYL-N-(4-HYDROXYBUTYL)NITROSAMINE, 3817-11-6, Dose [Inhibitor]: 0, 0.0025% IN DRINKING WATER FOR 12 WK BEGINNING POST CARCINOGEN TREATMENT (STUDY DURATION: 20 WK), Route [Inhibitor]: ORAL, Species: RAT, Strain/Sex: F344/MALE, Target Tissue: Type of Lesion: URINARY BLADDER: TRANSITIONAL CELL CARCINOMA, Dose [Carcinogen]: 0.05% IN DRINKING WATER FOR 8 WK, Promoter: NONE USED): 10/12 (83%), 12/12 (100%), -20%, not significant | tumour outcome (control, treated, inhibition, significance) (Carcinogen: N-BUTYL-N-(4-HYDROXYBUTYL)NITROSAMINE, 3817-11-6, Dose [Inhibitor]: 0, 0.1% IN DIET BEGINNING 5 WK PRIOR TO CARCINOGEN TREATMENT AND CONTINUING FOR DURATION OF STUDY (STUDY DURATION: 7 MO), Route [Inhibitor]: ORAL, Species: MOUSE, Strain/Sex: B6D2F1/MALE, Target Tissue: Type of Lesion: BLADDER: CARCINOMA IN SITU, Dose [Carcinogen]: 5 MG IN SALINE SOLUTION 2/WK FOR 9 WK, Promoter: NONE USED): 7/24 (29%), 3/24 (13%), 55%, not calculated | tumour outcome (control, treated, inhibition, significance) (Carcinogen: N-BUTYL-N-(4-HYDROXYBUTYL)NITROSAMINE, 3817-11-6, Dose [Inhibitor]: 0, 0.1% IN DIET BEGINNING 5 WK PRIOR TO CARCINOGEN TREATMENT AND CONTINUING FOR DURATION OF STUDY (STUDY DURATION: 7 MO), Route [Inhibitor]: ORAL, Species: MOUSE, Strain/Sex: B6D2F1/MALE, Target Tissue: Type of Lesion: BLADDER: TRANSITIONAL CELL CARCINOMA, Dose [Carcinogen]: 5 MG IN SALINE SOLUTION 2/WK FOR 9 WK, Promoter: NONE USED): 8/24 (33%), 5/24 (21%), 36%, not calculated | tumour outcome (control, treated, inhibition, significance) (Carcinogen: N-BUTYL-N-(4-HYDROXYBUTYL)NITROSAMINE, 3817-11-6, Dose [Inhibitor]: 0, 0.1% IN DIET BEGINNING 5 WK PRIOR TO CARCINOGEN TREATMENT AND CONTINUING FOR DURATION OF STUDY (STUDY DURATION: 7 MO), Route [Inhibitor]: ORAL, Species: MOUSE, Strain/Sex: B6D2F1/MALE, Target Tissue: Type of Lesion: BLADDER: TUMOR, Dose [Carcinogen]: 5 MG IN SALINE SOLUTION 2/WK FOR 9 WK, Promoter: NONE USED): 15/24 (63%), 8/24 (33%), 48%, p<0.05
